Source: patent US10676438B2, “KCNQ2-5 channel activator” (Ono Pharmaceutical Co., Ltd., priority 2014, dated 2020)
≈ marks a conversion by molar mass, not a printed value.

Columns and labels:
[1] = Evaluation of stability in human liver microsome; type: in vitro ADME; details: 5 μmol/L
Description: A test compound (10 mmol/L DMSO solution, 5 μL) was diluted with 50% acetonitrile aqueous solution (195 μL) to prepare 0.25 mmol/L solution.
To a reactor vessel which had been warmed to 37° C. in advance, 0.5 mg/mL of human liver microsome (Xenotech) and 245 μL of 0.1 M phosphate buffer solution (pH 7.4) including NADPH-Co-factor (BD Biosciences) were added, followed by preincubation for five minutes. Then, the above-mentioned test compound solution (5 μL) was added so as to start reaction (final concentration: 5 μmol/L). Immediately after the start, 20 μL was harvested and added to 180 μL of acetonitrile including an internal standard substance (warfarin) to stop the reaction. This solution (20 μL) was stirred with 180 μL of 50% acetonitrile aqueous solution on a plate equipped with a deproteinization filter. Then, the resulting mixture solution was subjected to suction filtration. The filtrate was adopted as a standard sample.
The above-mentioned reaction solution was incubated at 37° C. for 15 minutes, and 20 μL of the solution was added to 180 μL of cooled acetonitrile (including warfarin that is an internal standard substance) to stop the reaction. This solution (20 μL) was stirred with 180 μL of 50% acetonitrile aqueous solution on a plate equipped with a deproteinization filter, and then the resulting mixture solution was subjected to suction filtration. The filtrate was adopted as a reaction sample.
Residual rate (%) was obtained as follows: 1 μL of the sample solution was infused into LC-MS/MS (Discovery Max manufactured by Thermo Scientific), and a quotient obtained by dividing a peak area ratio of the reaction sample (peak area of test compound/peak area of internal standard substance) was divided by the peak area ratio of the standard sample was multiplied by 100.

hERG channel = hERG channel (Homo sapiens (Human), UniProt Q12809); experiment: Evaluation of action on hERG IKr current (patch-clamp); type: cell-based; details: HEK293 cell overexpressing hERG, maximum tail current, 10 minutes after application; read-out: IC50 (50% inhibitory activity of hERG channel)
Sequence of hERG channel (Q12809 whole entry): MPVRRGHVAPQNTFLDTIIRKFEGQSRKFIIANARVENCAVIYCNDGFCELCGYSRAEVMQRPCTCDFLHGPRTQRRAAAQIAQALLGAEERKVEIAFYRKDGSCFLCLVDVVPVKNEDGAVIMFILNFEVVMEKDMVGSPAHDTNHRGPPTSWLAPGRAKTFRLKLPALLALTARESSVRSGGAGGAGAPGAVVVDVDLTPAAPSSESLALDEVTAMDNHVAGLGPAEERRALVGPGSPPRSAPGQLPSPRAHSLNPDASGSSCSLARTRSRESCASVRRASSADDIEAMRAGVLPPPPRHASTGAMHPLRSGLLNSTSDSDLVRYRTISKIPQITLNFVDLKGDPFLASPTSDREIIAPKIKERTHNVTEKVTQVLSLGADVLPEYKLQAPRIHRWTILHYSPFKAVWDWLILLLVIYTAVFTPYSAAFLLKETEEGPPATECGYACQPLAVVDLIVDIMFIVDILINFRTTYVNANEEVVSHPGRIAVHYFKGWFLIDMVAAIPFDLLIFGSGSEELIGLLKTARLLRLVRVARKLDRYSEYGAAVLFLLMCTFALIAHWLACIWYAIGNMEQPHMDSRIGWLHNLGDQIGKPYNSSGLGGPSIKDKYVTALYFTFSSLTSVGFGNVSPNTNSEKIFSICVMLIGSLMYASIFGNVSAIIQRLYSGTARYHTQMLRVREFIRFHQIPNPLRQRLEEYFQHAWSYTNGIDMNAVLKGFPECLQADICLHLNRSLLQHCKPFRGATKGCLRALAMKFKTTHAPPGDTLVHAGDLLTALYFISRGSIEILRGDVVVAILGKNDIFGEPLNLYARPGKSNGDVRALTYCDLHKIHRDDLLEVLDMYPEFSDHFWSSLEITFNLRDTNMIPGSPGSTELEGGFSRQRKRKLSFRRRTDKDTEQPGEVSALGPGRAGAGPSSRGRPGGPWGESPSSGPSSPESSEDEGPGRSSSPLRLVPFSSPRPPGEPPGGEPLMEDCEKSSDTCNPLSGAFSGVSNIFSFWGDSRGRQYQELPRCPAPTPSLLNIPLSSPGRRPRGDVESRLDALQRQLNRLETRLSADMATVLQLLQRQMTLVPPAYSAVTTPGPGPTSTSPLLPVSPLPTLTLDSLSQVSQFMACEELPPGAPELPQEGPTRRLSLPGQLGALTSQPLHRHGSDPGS
Description: Using HEK293 cell overexpressing a human ether-a-go-go-related gene (hERG), the maximum tale current of the hERG IKr current induced by redepolarization pulse subsequent to depolarization pulse was measured by a patch-clamp method.

[2] = Solubility test (DMSO precipitation method, Pharmacopoeia of Japan elution test second solution); type: physicochemical; details: aqueous buffer, kinetic from dmso stock; Pharmacopoeia of Japan elution test second solution pH=6.8, room temperature, five hours; quantitation range 5 to 100 μM
Description: A calibration curve solution was prepared by diluting a test substance (10 mM DMSO solution) with acetonitrile and adding acetonitrile including an internal standard substance (candesartan) so as to be 0.1, 0.4, and 2 μM.
Sample solution was prepared as follows: 5 μL of the compound of the present invention (10 mM DMSO solution) was added to 495 μL of the Pharmacopoeia of Japan elution test second solution (pH=6.8), and the resulting mixture was stirred at room temperature for five hours. Then, the solution was placed into a solubility filter plate and subjected to suction filtration. The filtrate (20 μL) was diluted with acetonitrile, followed by adding acetonitrile including an internal standard substance ([…]).
The calibration curve and sample solutions in the amount of 5 μL were infused into LC-MS/MS (Discovery Max manufactured by Thermo Scientific) and subjected to quantitation (quantitation range: 5 to 100 μM).

[3] = test system: urinary bladder extracted from rat; experiment: Relaxing action on urinary bladder extracted from rat (rat Magnus test); details: concentration at which tension change rate is -20%; carbachol 1 μM-induced contraction of rat urinary bladder strips
Description: Female Jcl Wistar rats (CLEA Japan, Inc., body weight in use: 170 to 200 g) were anesthetized by intraperitoneal administration of about 40 mg/kg of pentobarbital (Somnopentyl, Schering Plough Animal Health Corporation), and killed by bloodletting, followed by abdominal incision to extract the urinary bladder. Immediately, the extracted urinary bladder was immersed in ice-cooled Krebs buffer (Krebs Ringer bicarbonate buffer (Sigma-Aldlich Co.) containing sodium hydrogencarbonate (final concentration: 15 mM) and calcium chloride (final concentration: 2.5 mM)) which had been saturated with a mixed gas (95% O2, 5% CO2).
The urinary bladder bodies were cut in the longitudinal direction to prepare strip specimens (about 10×3 mm) on ice. Immediately, the prepared specimens were suspended in a Magnus tube with 500 mg of tension loaded. The tube was filled with Krebs buffer (37° C.) aerated with a mixed gas. Note here that specimens were prepared within 24 hours after extraction of the tissue.
When one hour or more had passed after the specimen was suspended, 2.5M KCl was added so that the final concentration became 100 mM, specimens showing contraction reaction were used.
Carbachol (a contraction-inducing substance) at the concentration of contraction of 1 μM was used to induce contraction. […] After the contraction reaction was stabilized, a physiological salt solution or the compound of the present invention was added in a cumulative manner from low concentration such that the final concentration became 1, 10, 100 nM, 1 and 10 μM.
The tension (mg) of the extracted urinary bladder was employed as an evaluation parameter. The tension was read by using analysis software WAVE THERMO 1000. Tension after addition of the contraction-inducing substance was set to 0%. The change rate of the tension after addition of the compound of the present invention relative to the tension after addition of the contraction-inducing substance was defined as tension change rate (%). The tension change rate (%) was adopted as an evaluation indicator. The tension change rate (%) is calculated from the following formula. Tension change rate (%)={Tension after addition of compound of the present invention and the like (mg)−Tension before addition of contraction-inducing substance (mg)}/{Tension after addition of contraction-inducing substance (mg)−Tension before addition of contraction-inducing substance (mg)}×100−100
The value at which the tension change rate (%) was −20% was calculated as IC20, and the value was adopted as an indicator of the relaxing action of the extracted urinary bladder.

Human KCNQ2/3 channel = Human KCNQ2/3 channel (Homo sapiens (Human), UniProt O43525+O43526); experiment: Opening action with respect to KCNQ2/3 channel by depolarization stimulation (thallium influx, FLIPR); type: cell-based; details: concentration giving 50% of maximum reaction of retigabine (10 μM); human KCNQ2/3 expression CHO-DHFR- cells; 5 mM potassium and 0.5 mM thallium; read-out: KCNQ2/3 ECrtg50
Description: Human KCNQ2/3 expression cells (CHO-DHFR-cells) were seeded in each well of 384 well plate (collagen-coated, black, clear bottom) at 0.5×10^4 cells/50 μL per well, and cultured in a MEM ALPHA medium (containing 10 vol % inactivated (56° C., 30 min) Fetal Bovine Serum and 100 IU/mL Penicillin—100 μg/mL Streptomycin—2 mM L-Glutamine) at 37° C. in 5% CO2 for 18 to 24 hours. The medium in the plate was removed. Then, incubation (room temperature, 60 minutes, light-shielded) was carried out in a loading buffer (prepared by the method described in the manual of FluxOR Thallium Detection Kit (Invitrogen, F10016, F10017)). KCNQ2/3 channel opening action (thallium influx into cells) by the depolarization stimulation (5 mM potassium and 0.5 mM thallium) was measured by FLIPR TETRA (Molecular Devices). The compound of the present invention had been treated five minutes before the depolarization stimulation, and the reaction induced by the depolarization stimulation was measured over time for 180 seconds. The channel opening action of the compound of the present invention was evaluated based on the change amount of the fluorescence intensity from the time before the depolarization stimulation to the time after the passage of 180 seconds. Thus, the concentration (ECrtg50) satisfying 50% of the fluorescence intensity change of maximum reaction (at the time of 10 μM-treatment) of retigabine under this experiment condition was calculated.

[4] = human liver microsome 0.5 mg/mL, NADPH, 37° C., 15 minutes

Row | Residual rate ([1]; human, 15 min, pH 7.4) | solubility at 5 h [2] | EC50 (Human KCNQ2/3 channel) | Structure (SMILES) | IC50 (hERG channel) | IC20 [3] | Residual rate [1, 4]
1 | 100% | 77 µM (≈ 36.7 µg/mL) | 60 nM | C[C@@](O)(c1cc(Cl)c(NC(=O)NCc2ccc(C(F)(F)F)cn2)c(Cl)c1)C(F)(F)F [Example 22 (1), 1-{2,6-dichloro-4-[(2R)-1,1,1-trifluoro-2-hydroxy-2-propanyl]phenyl}-3-{[5-(trifluoromethyl)-2-pyridinyl]methyl}urea] | > 10000 nM | 300 nM | 
2 | 100% | 89 µM (≈ 42.5 µg/mL) | 500 nM | C[C@@](O)(c1cc(Cl)c(NC(=O)NCc2ncc(C(F)(F)F)cn2)c(Cl)c1)C(F)(F)F [Example 22 (2), 1-{2,6-dichloro-4-[(2R)-1,1,1-trifluoro-2-hydroxy-2-propanyl]phenyl}-3-{[5-(trifluoromethyl)-2-pyrimidinyl]methyl}urea] | > 10000 nM | 400 nM | 
3 | 98% | 81 µM (≈ 38.6 µg/mL) | 200 nM | C[C@@](O)(c1cc(Cl)c(NC(=O)NCc2ccc(C(F)(F)F)nc2)c(Cl)c1)C(F)(F)F [Example 22 (3), 1-{2,6-dichloro-4-[(2R)-1,1,1-trifluoro-2-hydroxy-2-propanyl]phenyl}-3-{[6-(trifluoromethyl)-3-pyridinyl]methyl}urea] | > 10000 nM | 300 nM | 
4 | 78% | 96 µM (≈ 45.8 µg/mL) | 1400 nM | C[C@](O)(c1cc(Cl)c(NC(=O)NCc2ncc(C(F)(F)F)cn2)c(Cl)c1)C(F)(F)F [Example 25 (1), 1-{2,6-dichloro-4-[(2S)-1,1,1-trifluoro-2-hydroxy-2-propanyl]phenyl}-3-{[5-(trifluoromethyl)-2-pyrimidinyl]methyl}urea] | > 10000 nM | 600 nM | 
5 | 80% | 86 µM (≈ 41 µg/mL) | 300 nM | C[C@](O)(c1cc(Cl)c(NC(=O)NCc2ccc(C(F)(F)F)nc2)c(Cl)c1)C(F)(F)F [Example 25 (2), 1-{2,6-dichloro-4-[(2S)-1,1,1-trifluoro-2-hydroxy-2-propanyl]phenyl}-3-{[6-(trifluoromethyl)-3-pyridinyl]methyl}urea] | > 10000 nM | 200 nM | 
6 | 87% | 98 µM (≈ 43.4 µg/mL) |  | C[C@](O)(c1cc(Cl)c(NC(=O)NCc2ccc(Cl)cn2)c(Cl)c1)C(F)(F)F [Example 25 (5), 1-[(5-chloro-2-pyridinyl)methyl]-3-{2,6-dichloro-4-[(2S)-1,1,1-trifluoro-2-hydroxy-2-propanyl]phenyl}urea] | > 10000 nM | 500 nM | 
7 |  | 100 µM (≈ 45.3 µg/mL) | 7 nM | O=C(NCc1nc(C(F)(F)F)no1)Nc1c(Cl)cc([C@@H](O)C(F)(F)F)cc1Cl [Example 32 (1), 1-{2,6-dichloro-4-[(1R)-2,2,2-trifluoro-1-hydroxyethyl]phenyl}-3-{[3-(trifluoromethyl)-1,2,4-oxadiazole-5-yl]methyl}urea] |  | 20 nM | 
8 | 100% | 100 µM (≈ 45.3 µg/mL) | 8 nM | O=C(NCc1nc(C(F)(F)F)no1)Nc1c(Cl)cc([C@H](O)C(F)(F)F)cc1Cl [Example 35 (1), 1-{2,6-dichloro-4-[(1S)-2,2,2-trifluoro-1-hydroxyethyl]phenyl}-3-{[3-(trifluoromethyl)-1,2,4-oxadiazole-5-yl]methyl}urea] |  | 20 nM | 
9 | 96% | 82 µM (≈ 33.6 µg/mL) | 60 nM | CC(O)(c1cc(Cl)c(NC(=O)Cc2ccc(F)cc2)c(Cl)c1)C(F)(F)F (stereo not shown) [Example 50 (1), N-[2,6-dichloro-4-(1,1,1-trifluoro-2-hydroxy-2-propanyl)phenyl]-2-(4-fluorophenyl)acetamide] | > 10000 nM |  | 
10 | 82% | 87 µM (≈ 40.1 µg/mL) | 1600 nM | NC(c1cc(Cl)c(NC(=O)NCc2ccc(C(F)(F)F)cn2)c(Cl)c1)C(F)(F)F (stereo not shown) [Example 79 (1), 1-[4-(1-amino-2,2,2-trifluoroethyl)-2,6-dichlorophenyl]-3-{[5-(trifluoromethyl)-2-pyridinyl]methyl}urea] | > 10000 nM |  | 

Row | Structure (SMILES) | Residual rate ([1]; human, 15 min, pH 7.4) | solubility at 5 h [2] | EC50 (Human KCNQ2/3 channel) | IC50 (hERG channel) | IC20 [3] | Residual rate [1, 4]
11 | C[C@@](O)(c1cc(Cl)c(NC(=O)NCc2nc(C(F)(F)F)no2)c(Cl)c1)C(F)(F)F [Example 23, 1-{2,6-dichloro-4-[(2R)-1,1,1-trifluoro-2-hydroxy-2-propanyl]phenyl}-3-{[3-(trifluoromethyl)-1,2,4-oxadiazole-5-yl]methyl}urea] |  | 46 µM (≈ 21.5 µg/mL) | 10 nM |  | 100 nM | 100%
12 | C[C@](O)(c1cc(Cl)c(NC(=O)NCc2nc(C(F)(F)F)no2)c(Cl)c1)C(F)(F)F [Example 26, 1-{2,6-dichloro-4-[(2S)-1,1,1-trifluoro-2-hydroxy-2-propanyl]phenyl}-3-{[3-(trifluoromethyl)-1,2,4-oxadiazole-5-yl]methyl}urea] |  | 59 µM (≈ 27.6 µg/mL) | 40 nM |  | 200 nM | 64%
